Reference: the C3SDB collision cross section collection

Details: instrument: DT, stepped-field

Row | Compound | collision cross section (N2) ([M+K]+) [Å²] | collision cross section (N2) ([M+Na]+) [Å²] | other results
1 | OC[C@H]1O[C@@H]2O[C@H]3[C@H](O)[C@@H](O)[C@@H](O[C@H]4[C@H](O)[C@@H](O)[C@@H](O[C@H]5[C@H](O)[C@@H](O)[C@@H](O[C@H]6[C@H](O)[C@@H](O)[C@@H](O[C@H]7[C@H](O)[C@@H](O)[C@@H](O[C@H]1[C@H](O)[C@H]2O)O[C@@H]7CO)O[C@@H]6CO)O[C@@H]5CO)O[C@@H]4CO)O[C@@H]3CO [Alpha-Cyclodextrin] | 287.7 | 285.5 | collision cross section (N2) ([M+H]+): 285.2 Å²
2 | NCCCC[C@H](NC(=O)[C@H](CC(=O)O)NC(=O)CNC(=O)[C@@H](N)CC(=O)O)C(=O)O [DGDK] | – | – | collision cross section (N2) ([M+H]+): 195.8 Å²
3 | CC(C)[C@H](NC(=O)[C@@H](N)CC(=O)O)C(=O)N[C@@H](CS)C(=O)N[C@@H](CCCCN)C(=O)O [DVCK] | – | – | collision cross section (N2) ([M+H]+): 204.7 Å²
4 | CC(C)C[C@H](NC(=O)[C@H](Cc1ccc(O)cc1)NC(=O)[C@H](C)NC(=O)[C@H](C)NC(=O)[C@@H](N)Cc1ccccc1)C(=O)N[C@@H](CCC(=O)O)C(=O)N[C@@H](CCCNC(=N)N)C(=O)O [FAAYLER] | – | – | collision cross section (N2) ([M+H]+): 295.5 Å²
5 | NCCCC[C@H](NC(=O)[C@H](CC(N)=O)NC(=O)[C@H](CCC(N)=O)NC(=O)[C@@H](N)Cc1ccccc1)C(=O)O [FQNK] | – | 243.9 | –
6 | N=C(N)NCCC[C@H](NC(=O)[C@H](CC(=O)O)NC(=O)[C@H](CO)NC(=O)[C@H](CO)NC(=O)[C@@H](N)Cc1ccccc1)C(=O)O [FSSDR] | – | – | collision cross section (N2) ([M+H]+): 237.3 Å²
7 | NCCCC[C@H](NC(=O)CNC(=O)[C@H](Cc1c[nH]c2ccccc12)NC(=O)[C@@H](N)Cc1ccccc1)C(=O)O [FWGK] | – | – | collision cross section (N2) ([M+H]+): 231 Å²
8 | CCCCCCCCCCCCC=CC[C@@H](O)[C@H](CO[C@@H]1O[C@H](CO)[C@@H](O)C(O)C1O)NC(=O)CC=CCC=CCCCCCCCCCCCCCCC (some centres not stated) [GlcCer(40:3)] | – | 295.8 | –
9 | CCCCC=CCC=CCC=CCC=CCC=CCC=CCC=CCC=CCC(=O)N[C@@H](CO[C@@H]1O[C@H](CO)[C@@H](O)C(O)C1O)[C@H](O)CC=CCCCCCCCCCCCC (some centres not stated) [GlcCer(47:9)] | 316.4 | – | –
10 | CCC(C)[C@H](N)C(=O)NCC(=O)N[C@@H](CO)C(=O)N[C@@H](CCC(=O)O)C(=O)N[C@H](C(=O)N[C@@H](Cc1ccc(O)cc1)C(=O)N[C@@H](Cc1c[nH]cn1)C(=O)N[C@@H](CC(N)=O)C(=O)N[C@@H](CC(C)C)C(=O)N[C@@H](CCCCN)C(=O)O)C(C)C (some centres not stated) [IGSEVYHNLK] | – | – | collision cross section (N2) ([M+H]+): 348.4 Å²
11 | CCC(C)[C@H](N)C(=O)N[C@@H](Cc1c[nH]cn1)C(=O)N[C@@H](CCC(=O)O)C(=O)N[C@@H](Cc1ccc(O)cc1)C(=O)N[C@@H](CCCCN)C(=O)O (some centres not stated) [IHEYK] | – | – | collision cross section (N2) ([M+H]+): 258.5 Å²
12 | CC(C)C[C@H](N)C(=O)N[C@@H](Cc1c[nH]c2ccccc12)C(=O)N[C@@H](CO)C(=O)N[C@@H](C)C(=O)N[C@@H](CCCCN)C(=O)O [LWSAK] | – | – | collision cross section (N2) ([M+H]+): 238.6 Å²
13 | CC(=O)N[C@H]1[C@H](O[C@H]2[C@@H](O)[C@@H](CO)O[C@@H](O[C@@H]([C@H](O)[C@@H](O)C=O)[C@H](O)CO)[C@@H]2O)O[C@H](CO)[C@@H](O[C@@H]2O[C@@H](C)[C@@H](O)[C@@H](O)[C@@H]2O)[C@@H]1O[C@@H]1O[C@H](CO)[C@H](O)[C@H](O)[C@H]1O [Lacto-N-Fucopentaose II] | 267.2 | 271.1 | collision cross section (N2) ([M+Rb]+): 278.4 Å²
14 | CC(=O)N[C@H]1[C@H](O[C@H]2[C@@H](O)[C@@H](CO)O[C@@H](O[C@H]3[C@H](O)[C@@H](O)C(O)O[C@@H]3CO)[C@@H]2O)O[C@H](CO)[C@@H](O)[C@@H]1O[C@@H]1O[C@H](CO)[C@H](O)[C@H](O)[C@H]1O[C@@H]1O[C@@H](C)[C@@H](O)[C@@H](O)[C@@H]1O (some centres not stated) [Lacto-N-Fucopentaose I] | 274.7 | 276.1 | collision cross section (N2) ([M+Cs]+): 275.6 Å²; collision cross section (N2) ([M+Li]+): 269.6 Å²; collision cross section (N2) ([M+Rb]+): 275.2 Å²
15 | OC[C@H]1O[C@@H](O[C@H]2[C@H](O)[C@@H](O)[C@@H](O)O[C@@H]2CO)[C@H](O)[C@@H](O)[C@H]1O [Lactose] | – | 178.1 | collision cross section (N2) ([M+Li]+): 186.3 Å²
16 | CCC(C)[C@H](NC(=O)[C@@H](NC(=O)[C@@H](N)CCSC)C(C)C)C(=O)N[C@@H](CCCNC(=N)N)C(=O)O (some centres not stated) [MVIR] | – | – | collision cross section (N2) ([M+H]+): 228.7 Å²
17 | N=C(N)NCCC[C@H](NC(=O)[C@H](CC(N)=O)NC(=O)[C@H](Cc1ccccc1)NC(=O)[C@@H](N)CC(N)=O)C(=O)O [NFNR] | – | – | collision cross section (N2) ([M+H]+): 225 Å²
18 | CCCCC/C=C\C/C=C\C/C=C\CCCCCCC(=O)O[C@H](COC(=O)CCCCCCCCCCCC)COP(=O)([O-])OCC[N+](C)(C)C [PC(33:3)] | 290.1 | – | –
19 | CC/C=C\C/C=C\C/C=C\C/C=C\C/C=C\C/C=C\CCC(=O)O[C@H](COC(=O)CCCCCCCCCCCC)COP(=O)([O-])OCC[N+](C)(C)C [PC(35:6)] | 291.8 | – | –
20 | CC/C=C\C/C=C\C/C=C\C/C=C\C/C=C\C/C=C\CCC(=O)O[C@H](COC(=O)CCCCCCC/C=C\CCCC)COP(=O)([O-])OCC[N+](C)(C)C [PC(36:7)] | – | 292.5 | –

Row | Compound | collision cross section (N2) ([M+K]+) [Å²] | collision cross section (N2) ([M+Na]+) [Å²] | other results
21 | CC/C=C\C/C=C\C/C=C\C/C=C\C/C=C\C/C=C\CCC(=O)O[C@H](COC(=O)CCCCCCCCCCCCCC)COP(=O)([O-])OCC[N+](C)(C)C [PC(37:6)] | 298.2 | – | –
22 | CC/C=C\C/C=C\C/C=C\C/C=C\C/C=C\CCCC(=O)O[C@H](COC(=O)CCCCCCC/C=C\CCCCCCCCC)COP(=O)([O-])OCC[N+](C)(C)C [PC(39:6)] | 303.4 | – | –
23 | CC/C=C\C/C=C\C/C=C\C/C=C\C/C=C\C/C=C\CCC(=O)OC[C@H](COP(=O)([O-])OCC[N+](C)(C)C)OC(=O)CCCCCCC/C=C\CCCCCCC [PC(39:7)] | 303.8 | – | –
24 | CC=CCC=CCC=CCC=CCC=CCC=CCC(=O)OC[C@H](COP(=O)(O)OCC[N+](C)(C)C)OC(=O)CC=CCC=CCC=CCC=CCC=CCC=CC [PC(40:12)] | – | 300.6 | –
25 | CCCCCCCCCCCCCCCCCCCC(=O)O[C@H](COC(=O)CCCCCCCCCCCCCCCC)COP(=O)(O)OCCN [PE(37:0)] | 297.8 | – | –
26 | CCCCCCCCC/C=C\CCCCCCCC(=O)O[C@H](COC(=O)CCCCCCCCCCCCCCCCC)COP(=O)(O)OCCN [PE(37:1)] | 295 | 292.2 | –
27 | CCCCC/C=C\C/C=C\CCCCCCCC(=O)O[C@H](COC(=O)CCCCCCCCCCCCCCCCCC)COP(=O)(O)OCCN [PE(37:2)] | 289.8 | 288.2 | –
28 | CCCCC/C=C\C/C=C\CCCCCCCCCC(=O)O[C@H](COC(=O)CCCCCCC/C=C\CCCCCCC)COP(=O)(O)OCCN [PE(37:3)] | 286.5 | 286.2 | –
29 | CCCC/C=C\C/C=C\CCCCCCCC(=O)OC[C@H](COP(=O)(O)OCCN)OC(=O)CCCCC/C=C\C/C=C\C/C=C\C/C=C\CCCCC [PE(39:6)] | – | 286.4 | –
30 | CC/C=C\C/C=C\C/C=C\C/C=C\C/C=C\C/C=C\CCC(=O)OC[C@H](COP(=O)(O)OCCN)OC(=O)CC/C=C\C/C=C\C/C=C\C/C=C\C/C=C\C/C=C\CC [PE(44:12)] | – | 299.7 | –
31 | CCCCC/C=C\C/C=C\CCCCCCCC(=O)O[C@H](COCCCCCCCCCCCCCCCC)COP(=O)(O)OCCN [PE(o34:2)] | – | 279.7 | –
32 | CCCCC/C=C\C/C=C\C/C=C\C/C=C\CCCC(=O)O[C@H](COC(=O)CCCCCCCCCCCCCCCC)COP(=O)(O)OC[C@H](N)C(=O)O [PS(37:4)] | – | 295 | –
33 | CCCCC/C=C\C/C=C\C/C=C\C/C=C\CCCC(=O)OC[C@H](COP(=O)(O)OC[C@H](N)C(=O)O)OC(=O)CCCC/C=C\C/C=C\C/C=C\CCCCC [PS(38:7)] | – | 290.2 | –
34 | CC/C=C\C/C=C\C/C=C\C/C=C\C/C=C\C/C=C\CCC(=O)OC[C@H](COP(=O)(O)OC[C@H](N)C(=O)O)OC(=O)CCCCCCC/C=C\CCCCCCCC [PS(40:7)] | – | 295.6 | –
35 | CC/C=C\C/C=C\C/C=C\C/C=C\C/C=C\C/C=C\CCC(=O)O[C@H](COC(=O)CCCCCCCCCCCCCCCCCC)COP(=O)(O)OC[C@H](N)C(=O)O [PS(41:6)] | – | 303.3 | –
36 | CCCCC/C=C\C/C=C\C/C=C\C/C=C\CCCCCC(=O)O[C@H](COC(=O)CCCCCCCCC/C=C\CCCCCCCC)COP(=O)(O)OC[C@H](N)C(=O)O [PS(42:5)] | – | 307 | –
37 | CC/C=C\C/C=C\C/C=C\C/C=C\C/C=C\C/C=C\CCC(=O)O[C@H](COC(=O)CCCCCC/C=C\C/C=C\C/C=C\CCCCC)COP(=O)(O)OC[C@H](N)C(=O)O [PS(42:9)] | – | 302 | –
38 | CCCCCCCC=CCC=CCC=CCC=CCC=CCC(=O)OC[C@H](COP(=O)(O)OC[C@H](N)C(=O)O)OC(=O)CC=CCC=CCC=CCC=CCC=CCCCCCCC [PS(46:10)] | 306.3 | 309.2 | –
39 | CCCCC=CCC=CCC=CCC=CCC=CCC=CCC(=O)OC[C@H](COP(=O)(O)OC[C@H](N)C(=O)O)OC(=O)CC=CCC=CCC=CCC=CCC=CCC=CCCCC [PS(46:12)] | – | 309.5 | –
